Test results: patent US20170121344A1 (Siga Technologies, Inc., priority 2009, published 2017)
Read-outs that look alike come from different tables or passages of the source.

Tests used:
DENV-3 = test: Viral yield assay against DENV-3 in Vero cells; type: cell-based; conditions: Dengue virus
In short: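 Progeny virus from compound-treated Vero monolayers infected at an MOI of 0.1 is collected after 48 h at 37° C and titered on Vero cells. DMSO serves as control.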

[1] = test system: Dengue-2 (Strain New Guinea C); test: Viral yield assay against Dengue-2 in Vero cells; type: cell-based, Dengue virus; conditions: Dengue virus, read-out: Activity (EC50 in μM) DENV-2
In short: (§1)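 Yield reduction, Vero; MOI 0.1; compound vs DMSO; 37° C; harvest 48 h p.i.; titer on Vero; EC50 fitted. Other serotypes run the same way.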

DENV-1 = test: Viral yield assay against DENV-1 in Vero cells; type: cell-based; conditions: Dengue virus
In short: as §1

DENV-4 = test: Viral yield assay against DENV-4 in Vero cells; type: cell-based; conditions: Dengue virus
In short: as §1

[2] = DENV2, viral yield assay, Vero cells, MOI 0.1, 48 hours post infection

Row | SMILES | EC50 (DENV-3; DENV3, viral yield assay) [µM] | EC50 [1, 2] [µM] | EC50 (DENV-1; DENV1, viral yield assay) [µM] | EC50 (DENV-4; DENV4, viral yield assay) [µM] | EC50 (DENV-3; DENV3) [µM] | EC50 ([1]; DENV2, Vero cells) [µM] | EC50 (DENV-1; DENV1) [µM] | EC50 (DENV-4; DENV4) [µM] | EC50 ([1]; DENV2, Vero, 48 h) [µM]
1 | COc1ccc(NC(=O)c2sc3nc(-c4ccc(Cl)cc4)ccc3c2N)c(OC)c1 [Compound 652, 3-amino-6-(4-chlorophenyl)-N-(2,4-dimethoxyyphenyl)thieno[2,3-b]pyridine-2-carboxamide] | < 5 | < 5 | < 5 | < 5 |  |  |  |  | 
2 | Cc1cc(Br)ccc1NC(=O)c1sc2nc(-c3ccc4c(c3)OCO4)ccc2c1N [Compound 497, 3-amino-6-(1,3-benzodioxol-5-yl)-N-(4-bromo-2-methyl-phenyl)thieno[2,3-b] pyridine-2-carboxamide] | < 5 | < 5 | < 5 | < 5 |  |  |  |  | 
3 | COc1cccc(-c2ccc3c(N)c(C(=O)Nc4ccc(Br)c(C)c4)sc3n2)c1 [Compound 550, 3-amino-N-(4-bromo-3-methyl-phenyl)-6-(3-methoxyphenyl)thieno[2,3-b] pyridine-2-carboxamide] | < 5 | < 5 | < 5 | < 5 |  |  |  |  | 
4 | O=C(O)CCC(=O)Nc1c(C(=O)Nc2cccc(C(F)(F)F)c2)sc2nc(-c3cccs3)ccc12 [Compound 311, 4-oxo-4-[[6-(2-thienyl)-2-[[3-(trifluoromethyl)phenyl]carbamoyl]thieno[2,3-b]pyridin-3-yl]amino]butanoic acid] |  |  |  |  | < 5 | < 5 | < 5 | < 5 | 
5 | Nc1c(C(=O)Nc2cccc(Cl)c2Cl)sc2nc(-c3ccc(Cl)cc3)ccc12 [Compound 343, 3-amino-6-(4-chlorophenyl)-N-(2,3-dichloro-phenyl)thieno [2,3-b]pyridine-2-carboxamide] | < 5 | < 5 | < 5 | < 5 |  |  |  |  | 
6 | COc1cc(NC(=O)c2sc3nc(-c4cccs4)ccc3c2N)cc(OC)c1OC [Compound 473, 3-amino-6-(2-thienyl)-N-(3,4,5-trimethoxyphenyl)thieno[2,3-b]pyridine-2-carboxamide] | < 5 |  | < 5 | < 5 |  |  |  |  | < 5
7 | Nc1c(C(=O)Nc2ccccc2Br)sc2nc(-c3ccc(Cl)cc3)ccc12 [Compound 341, 3-amino-N-(2-bromophenyl)-6-(4-chlorophenyl) thieno[2,3-b] pyridine-2-carboxamide] | < 5 | < 5 | < 5 | < 5 |  |  |  |  | 
8 | CCC(C)c1ccc(NC(=O)c2sc3nc(-c4cccc(OC)c4)ccc3c2N)cc1 (stereo not drawn) [Compound 555, 3-amino-6-(3-methoxyphenyl)-N-(4-sec-butylphenyl)thieno[2,3-b]pyridine-2-carboxamide] | < 5 | < 5 | < 5 | < 5 |  |  |  |  | 
9 | Nc1c(C(=O)Nc2cccc(Cl)c2)sc2nc(-c3ccc(Cl)cc3)ccc12 [Compound 344, 3-amino-N-(3-chlorophenyl)-6-(4-chloro-phenyl)thieno[2,3-b]pyridine-2-carboxamide] | < 5 | < 5 | < 5 | < 5 |  |  |  |  | 
10 | CCOC(=O)CCC(=O)Nc1c(C(=O)Nc2cccc(C(F)(F)F)c2)sc2nc(-c3cccs3)ccc12 [Compound 310, Ethyl 4-oxo-4-[[6-(2-thienyl)-2-[[3-(trifluoromethyl)phenyl]carbamoyl]thieno[2,3-b]pyridin-3-yl]amino]butanoate] |  |  |  |  | < 5 | < 5 | < 5 | < 5 | 
11 | Nc1c(C(=O)N(c2ccccc2)c2ccccc2)sc2nc3c(cc12)CCCCC3 [Compound 373, 3-amino-N,N-diphenyl-6,7,8,9-tetrahydro-5H-cyclohepta[b]thieno[3,2-e]pyridine-2-carboxamide] | < 5 | < 5 | < 5 | < 5 |  |  |  |  | 
12 | COc1cccc(-c2ccc3c(N)c(C(=O)Nc4cccc(Cl)c4C)sc3n2)c1 [Compound 543, 3-amino-N-(3-chloro-2-methyl-phenyl)-6-(3-methoxyphenyl)thieno[2,3-b] pyridine-2-carboxamide] | < 5 | < 5 | < 5 | < 5 |  |  |  |  | 
13 | Nc1c(C(=O)Nc2ccc3c(c2)OCCO3)sc2nc(-c3cccs3)ccc12 [Compound 415, 3-amino-N-(2,3-dihydro-1,4-benzodioxin-6-yl)-6-(2-thienyl)thieno[2,3-b] pyridine-2-carboxamide] | < 5 | < 5 | < 5 | < 5 |  |  |  |  | 
14 | Nc1c(C(=O)Nc2ccc(Cl)nc2)sc2nc(-c3ccc(Cl)cc3)ccc12 [Compound 353, 3-amino-6-(4-chlorophenyl)-N-(6-chloro-3-pyridyl)thieno [2,3-b]pyridine-2-carboxamide] | < 5 | < 5 | < 5 | < 5 |  |  |  |  | 
15 | Nc1c(C(=O)Nc2ccc(F)c(F)c2)sc2nc(-c3ccc4c(c3)OCO4)ccc12 [Compound 597, 3-amino-6-(1,3-benzodioxol-5-yl)-N-(3,4-difluorophenyl)thieno[2,3-b]pyridine-2-carboxamide] | < 5 |  | < 5 | < 5 |  |  |  |  | < 5
16 | Nc1c(C(=O)/N=c2\[nH]c3ccccc3s2)sc2nc(-c3cccs3)ccc12 [Compound 486, (NE)-3-amino-N-(3H-1,3-benzo-thiazol-2-ylidene)-6-(2-thienyl)thieno [2,3-b]pyridine-2-carboxamide] | < 5 |  | < 5 | < 5 |  |  |  |  | < 5
17 | C[N+](C)(C)CC(=O)Nc1c(C(=O)Nc2cccc(C(F)(F)F)c2)sc2nc(-c3cccs3)ccc12 [Compound 309, Trimethyl-[2-oxo-2-[[6-(2-thienyl)-2-[[3-(trifluoromethyl)phenyl]carbamoyl]thieno[2,3-b]pyridin-3-yl]amino]ethyl]ammonium] |  |  |  |  | < 5 | < 5 | < 5 | < 5 | 
18 | CC(=O)Nc1c(C(=O)Nc2nnc(-c3ccccc3)s2)sc2nc3c(cc12)CCCCC3 [Compound 358, 3-acetamido-N-(5-phenyl-1,3,4-thiadiazol-2-yl)-6,7,8,9-tetrahydro-5H-cyclohepta[b]thieno[3,2-e]pyridine-2-carboxamide] |  |  |  |  | 5 to 25 | < 5 | < 5 | > 25 | 
19 | Nc1c(C(=O)Nc2ccc(Cl)c(C(F)(F)F)c2)sc2nc(-c3ccc4c(c3)OCO4)ccc12 [Compound 600, 3-amino-6-(1,3-benzodioxol-5-yl)-N-[4-chloro-3-(trifluoromethyl)phenyl]thieno [2,3-b]pyridine-2-carboxamide] | < 5 | < 5 | < 5 | < 5 |  |  |  |  | 
20 | COc1cccc(-c2ccc3c(N)c(C(=O)Nc4ccccc4C(F)(F)F)sc3n2)c1 [Compound 449, 3-amino-6-(3-methoxyphenyl)-N-[2-(trifluoromethyl)phenyl]thieno[2,3-b] pyridine-2-carboxamide] | < 5 | < 5 | < 5 | < 5 |  |  |  |  | 
21 | Nc1c(C(=O)Nc2cccc(F)c2)sc2nc(-c3cccs3)ccc12 [Compound 464, 3-amino-N-(3-fluorophenyl)-6-(2-thienyl)thieno[2,3-b]pyridine-2-carboxamide] | < 5 | < 5 | < 5 | < 5 |  |  |  |  | 
